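Five concentrations, 48 hours, 96-well plates. GI50: concentration for 50% inhibition of growth. The concentration for full growth arrest is given as TGI.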
What was measured:
Test in all cases: DTP human tumour cell line panel, 48 h
NCI-H226 lung = test system: NCI-H226 lung
SN12C renal = test system: SN12C renal
MOLT-4 leukemia = test system: MOLT-4 leukemia
SNB-19 CNS = test system: SNB-19 CNS
NCI-H23 lung = test system: NCI-H23 lung
SF-268 CNS = test system: SF-268 CNS
SR leukemia = test system: SR leukemia
RPMI-8226 leukemia = test system: RPMI-8226 leukemia
NCI-H522 lung = test system: NCI-H522 lung
XF 498 CNS = test system: XF 498 CNS
UO-31 renal = test system: UO-31 renal
KM20L2 colon = test system: KM20L2 colon
M19-MEL melanoma = test system: M19-MEL melanoma
A549 NSCLC = test system: A549 NSCLC
MALME-3M melanoma = test system: MALME-3M melanoma
HOP-18 NSCLC = test system: HOP-18 NSCLC
OVCAR-5 ovarian = test system: OVCAR-5 ovarian
SK-OV-3 ovarian = test system: SK-OV-3 ovarian
OVCAR-8 ovarian = test system: OVCAR-8 ovarian
M14 melanoma = test system: M14 melanoma
KM12 colon = test system: KM12 colon
OVCAR-3 ovarian = test system: OVCAR-3 ovarian
SW-620 colon = test system: SW-620 colon
CAKI-1 renal = test system: CAKI-1 renal
DMS 273 small cell lung = test system: DMS 273 small cell lung
SNB-75 CNS = test system: SNB-75 CNS
DMS 114 small cell lung = test system: DMS 114 small cell lung
HOP-92 NSCLC = test system: HOP-92 NSCLC
CCRF-CEM leukemia = test system: CCRF-CEM leukemia
U251 CNS = test system: U251 CNS
NCI-H460 lung = test system: NCI-H460 lung
K-562 leukemia = test system: K-562 leukemia
COLO 205 colon = test system: COLO 205 colon
HOP-62 NSCLC = test system: HOP-62 NSCLC
HCC-2998 colon = test system: HCC-2998 colon
SK-MEL-28 melanoma = test system: SK-MEL-28 melanoma
LOX IMVI melanoma = test system: LOX IMVI melanoma
EKVX NSCLC = test system: EKVX NSCLC
786-0 renal = test system: 786-0 renal
OVCAR-4 ovarian = test system: OVCAR-4 ovarian
DLD-1 colon = test system: DLD-1 colon
HCT-15 colon = test system: HCT-15 colon
HT29 colon = test system: HT29 colon
IGROV1 ovarian = test system: IGROV1 ovarian
SNB-78 CNS = test system: SNB-78 CNS
UACC-257 melanoma = test system: UACC-257 melanoma
UACC-62 melanoma = test system: UACC-62 melanoma
SK-MEL-5 melanoma = test system: SK-MEL-5 melanoma
ACHN renal = test system: ACHN renal
RXF 393 renal = test system: RXF 393 renal
SK-MEL-2 melanoma = test system: SK-MEL-2 melanoma
SF-539 CNS = test system: SF-539 CNS
SF-295 CNS = test system: SF-295 CNS
HCT-116 colon = test system: HCT-116 colon
TK-10 renal = test system: TK-10 renal
RXF-631 renal = test system: RXF-631 renal
LXFL 529 NSCLC = test system: LXFL 529 NSCLC
HL-60(TB) leukemia = test system: HL-60(TB) leukemia
A498 renal = test system: A498 renal

SMILES: Cc1cc2c(ccc3c(C)cc(=O)oc32)o1
- TGI (NCI-H226 lung): > 100 µM
- TGI (SN12C renal): > 100 µM
- TGI (MOLT-4 leukemia): > 100 µM
- TGI (SNB-19 CNS): > 100 µM
- TGI (NCI-H23 lung): > 100 µM
- TGI (SF-268 CNS): > 100 µM
- TGI (SR leukemia): > 100 µM
- TGI (RPMI-8226 leukemia): > 100 µM
- TGI (NCI-H522 lung): > 100 µM
- TGI (XF 498 CNS): > 100 µM
- TGI (UO-31 renal): > 100 µM
- TGI (KM20L2 colon): > 100 µM
- TGI (M19-MEL melanoma): > 100 µM
- TGI (A549 NSCLC): > 100 µM
- TGI (MALME-3M melanoma): > 100 µM
- TGI (HOP-18 NSCLC): > 100 µM
- TGI (OVCAR-5 ovarian): > 100 µM
- TGI (SK-OV-3 ovarian): > 100 µM
- TGI (OVCAR-8 ovarian): > 100 µM
- TGI (M14 melanoma): > 100 µM
- TGI (KM12 colon): > 100 µM
- TGI (OVCAR-3 ovarian): > 100 µM
- TGI (SW-620 colon): > 100 µM
- TGI (CAKI-1 renal): > 100 µM
- TGI (DMS 273 small cell lung): > 100 µM
- TGI (SNB-75 CNS): > 100 µM
- TGI (DMS 114 small cell lung): > 100 µM
- TGI (HOP-92 NSCLC): > 100 µM
- TGI (CCRF-CEM leukemia): > 100 µM
- TGI (U251 CNS): > 100 µM
- TGI (NCI-H460 lung): > 100 µM
- TGI (K-562 leukemia): > 100 µM
- TGI (COLO 205 colon): > 100 µM
- TGI (HOP-62 NSCLC): > 100 µM
- TGI (HCC-2998 colon): > 100 µM
- TGI (SK-MEL-28 melanoma): > 100 µM
- TGI (LOX IMVI melanoma): > 100 µM
- TGI (EKVX NSCLC): > 100 µM
- TGI (786-0 renal): > 100 µM
- TGI (OVCAR-4 ovarian): > 100 µM
- TGI (DLD-1 colon): > 100 µM
- TGI (HCT-15 colon): > 100 µM
- TGI (HT29 colon): > 100 µM
- TGI (IGROV1 ovarian): > 100 µM
- TGI (SNB-78 CNS): > 100 µM
- TGI (UACC-257 melanoma): > 100 µM
- TGI (UACC-62 melanoma): > 100 µM
- TGI (SK-MEL-5 melanoma): > 100 µM
- TGI (ACHN renal): > 100 µM
- TGI (RXF 393 renal): > 100 µM
- TGI (SK-MEL-2 melanoma): > 100 µM
- TGI (SF-539 CNS): > 100 µM
- TGI (SF-295 CNS): > 100 µM
- TGI (HCT-116 colon): > 100 µM
- TGI (TK-10 renal): > 100 µM
- TGI (RXF-631 renal): > 100 µM
- TGI (LXFL 529 NSCLC): > 100 µM

SMILES: CC(=O)[O][Ga]([Cl])[O]C(C)=O
- GI50 (NCI-H226 lung): > 100 µM
- TGI (NCI-H226 lung): > 100 µM
- GI50 (SN12C renal): > 100 µM
- TGI (SN12C renal): > 100 µM
- GI50 (MOLT-4 leukemia): > 100 µM
- TGI (MOLT-4 leukemia): > 100 µM
- GI50 (SNB-19 CNS): > 100 µM
- TGI (SNB-19 CNS): > 100 µM
- GI50 (NCI-H23 lung): > 100 µM
- TGI (NCI-H23 lung): > 100 µM
- GI50 (SF-268 CNS): > 100 µM
- TGI (SF-268 CNS): > 100 µM
- GI50 (SR leukemia): > 100 µM
- TGI (SR leukemia): > 100 µM
- GI50 (RPMI-8226 leukemia): > 100 µM
- TGI (RPMI-8226 leukemia): > 100 µM
- GI50 (NCI-H522 lung): > 100 µM
- TGI (NCI-H522 lung): > 100 µM
- GI50 (XF 498 CNS): > 100 µM
- TGI (XF 498 CNS): > 100 µM
- GI50 (UO-31 renal): > 100 µM
- TGI (UO-31 renal): > 100 µM
- GI50 (KM20L2 colon): > 100 µM
- TGI (KM20L2 colon): > 100 µM
- GI50 (M19-MEL melanoma): 65.6 µM
- TGI (M19-MEL melanoma): > 100 µM
- GI50 (A549 NSCLC): > 100 µM
- TGI (A549 NSCLC): > 100 µM
- GI50 (MALME-3M melanoma): > 100 µM
- TGI (MALME-3M melanoma): > 100 µM
- GI50 (HOP-18 NSCLC): > 100 µM
- TGI (HOP-18 NSCLC): > 100 µM
- GI50 (OVCAR-5 ovarian): > 100 µM
- TGI (OVCAR-5 ovarian): > 100 µM
- GI50 (SK-OV-3 ovarian): > 100 µM
- TGI (SK-OV-3 ovarian): > 100 µM
- GI50 (OVCAR-8 ovarian): > 100 µM
- TGI (OVCAR-8 ovarian): > 100 µM
- GI50 (M14 melanoma): > 100 µM
- TGI (M14 melanoma): > 100 µM
- GI50 (HL-60(TB) leukemia): > 100 µM
- TGI (HL-60(TB) leukemia): > 100 µM
- GI50 (KM12 colon): > 100 µM
- TGI (KM12 colon): > 100 µM
- GI50 (OVCAR-3 ovarian): > 100 µM
- TGI (OVCAR-3 ovarian): > 100 µM
- GI50 (SW-620 colon): > 100 µM
- TGI (SW-620 colon): > 100 µM
- GI50 (CAKI-1 renal): > 100 µM
- TGI (CAKI-1 renal): > 100 µM
- GI50 (DMS 273 small cell lung): > 100 µM
- TGI (DMS 273 small cell lung): > 100 µM
- GI50 (SNB-75 CNS): > 100 µM
- TGI (SNB-75 CNS): > 100 µM
- GI50 (DMS 114 small cell lung): > 100 µM
- TGI (DMS 114 small cell lung): > 100 µM
- GI50 (HOP-92 NSCLC): > 100 µM
- TGI (HOP-92 NSCLC): > 100 µM
- GI50 (CCRF-CEM leukemia): > 100 µM
- TGI (CCRF-CEM leukemia): > 100 µM
- GI50 (U251 CNS): > 100 µM
- TGI (U251 CNS): > 100 µM
- GI50 (NCI-H460 lung): > 100 µM
- TGI (NCI-H460 lung): > 100 µM
- GI50 (K-562 leukemia): > 100 µM
- TGI (K-562 leukemia): > 100 µM
- GI50 (COLO 205 colon): > 100 µM
- TGI (COLO 205 colon): > 100 µM
- GI50 (SK-MEL-28 melanoma): > 100 µM
- TGI (SK-MEL-28 melanoma): > 100 µM
- GI50 (LOX IMVI melanoma): > 100 µM
- TGI (LOX IMVI melanoma): > 100 µM
- GI50 (786-0 renal): > 100 µM
- TGI (786-0 renal): > 100 µM
- GI50 (OVCAR-4 ovarian): > 100 µM
- TGI (OVCAR-4 ovarian): > 100 µM
- GI50 (A498 renal): > 100 µM
- TGI (A498 renal): > 100 µM
- GI50 (DLD-1 colon): > 100 µM
- TGI (DLD-1 colon): > 100 µM
- GI50 (HT29 colon): > 100 µM
- TGI (HT29 colon): > 100 µM
- GI50 (IGROV1 ovarian): > 100 µM
- TGI (IGROV1 ovarian): > 100 µM
- GI50 (SNB-78 CNS): > 100 µM
- TGI (SNB-78 CNS): > 100 µM
- GI50 (UACC-257 melanoma): > 100 µM
- TGI (UACC-257 melanoma): > 100 µM
- GI50 (UACC-62 melanoma): > 100 µM
- TGI (UACC-62 melanoma): > 100 µM
- GI50 (SK-MEL-5 melanoma): > 100 µM
- TGI (SK-MEL-5 melanoma): > 100 µM
- GI50 (ACHN renal): > 100 µM
- TGI (ACHN renal): > 100 µM
- GI50 (RXF 393 renal): > 100 µM
- TGI (RXF 393 renal): > 100 µM
- GI50 (SK-MEL-2 melanoma): > 100 µM
- TGI (SK-MEL-2 melanoma): > 100 µM
- GI50 (SF-539 CNS): > 100 µM
- TGI (SF-539 CNS): > 100 µM
- GI50 (SF-295 CNS): > 100 µM
- TGI (SF-295 CNS): > 100 µM
- GI50 (HCT-116 colon): > 100 µM
- TGI (HCT-116 colon): > 100 µM
- GI50 (TK-10 renal): > 100 µM
- TGI (TK-10 renal): > 100 µM
- GI50 (RXF-631 renal): > 100 µM
- TGI (RXF-631 renal): > 100 µM
- GI50 (LXFL 529 NSCLC): > 100 µM
- TGI (LXFL 529 NSCLC): > 100 µM

Reference: PubChem BioAssay (NCI)
